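GI50: concentration for 50% inhibition of growth. TGI is the concentration that stops growth completely.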
How the values were obtained:
Assay in all cases: NCI tumour cell line growth inhibition, 384-well format
MDA-MB-468 breast = tested on: MDA-MB-468 breast
PC-3 prostate = tested on: PC-3 prostate
RXF 393 renal = tested on: RXF 393 renal
TK-10 renal = tested on: TK-10 renal
OVCAR-5 ovarian = tested on: OVCAR-5 ovarian
UACC-62 melanoma = tested on: UACC-62 melanoma
SF-539 CNS = tested on: SF-539 CNS
OVCAR-3 ovarian = tested on: OVCAR-3 ovarian
CCRF-CEM leukemia = tested on: CCRF-CEM leukemia
SNB-19 CNS = tested on: SNB-19 CNS
HT29 colon = tested on: HT29 colon
NCI-H522 lung = tested on: NCI-H522 lung
T-47D breast = tested on: T-47D breast
COLO 205 colon = tested on: COLO 205 colon
SNB-75 CNS = tested on: SNB-75 CNS
MOLT-4 leukemia = tested on: MOLT-4 leukemia
M14 melanoma = tested on: M14 melanoma
SR leukemia = tested on: SR leukemia
NCI-H23 lung = tested on: NCI-H23 lung
KM12 colon = tested on: KM12 colon
DU-145 prostate = tested on: DU-145 prostate
786-0 renal = tested on: 786-0 renal
MCF7 breast = tested on: MCF7 breast
SK-OV-3 ovarian = tested on: SK-OV-3 ovarian
OVCAR-8 ovarian = tested on: OVCAR-8 ovarian
NCI-H460 NSCLC = tested on: NCI-H460 NSCLC
MDA-MB-231 breast = tested on: MDA-MB-231 breast
HCT-15 colon = tested on: HCT-15 colon
NCI-H226 lung = tested on: NCI-H226 lung
RPMI-8226 leukemia = tested on: RPMI-8226 leukemia
A498 renal = tested on: A498 renal
HS 578T breast = tested on: HS 578T breast
SW-620 colon = tested on: SW-620 colon
SF-295 CNS = tested on: SF-295 CNS
HCC-2998 colon = tested on: HCC-2998 colon
SF-268 CNS = tested on: SF-268 CNS
U251 glioblastoma = tested on: U251 glioblastoma
K-562 leukemia = tested on: K-562 leukemia
LOX IMVI melanoma = tested on: LOX IMVI melanoma
EKVX NSCLC = tested on: EKVX NSCLC
ACHN renal = tested on: ACHN renal
SN12C renal = tested on: SN12C renal
MALME-3M melanoma = tested on: MALME-3M melanoma
UACC-257 melanoma = tested on: UACC-257 melanoma
A549 NSCLC = tested on: A549 NSCLC
HL-60(TB) leukemia = tested on: HL-60(TB) leukemia
OVCAR-4 ovarian = tested on: OVCAR-4 ovarian
BT-549 breast = tested on: BT-549 breast
SK-MEL-5 melanoma = tested on: SK-MEL-5 melanoma
HOP-62 NSCLC = tested on: HOP-62 NSCLC
SK-MEL-28 melanoma = tested on: SK-MEL-28 melanoma
NCI/ADR-RES ovarian = tested on: NCI/ADR-RES ovarian
HOP-92 NSCLC = tested on: HOP-92 NSCLC
IGROV1 ovarian = tested on: IGROV1 ovarian
MDA-MB-435 melanoma = tested on: MDA-MB-435 melanoma
CAKI-1 renal = tested on: CAKI-1 renal
UO-31 renal = tested on: UO-31 renal
NCI-H322M lung = tested on: NCI-H322M lung

In the case of Cc1cc(N2CCOCC2)cc2[nH]c(-c3c(NC[C@@H](O)c4cccc(Cl)c4)cc[nH]c3=O)nc12, the GI50 (MDA-MB-468 breast) is reported as 2.23 µM, the TGI (MDA-MB-468 breast) is reported as 4.73 µM and the GI50 (PC-3 prostate) is reported as 3.18 µM. It also gave a TGI (PC-3 prostate) of 13.8 µM, a GI50 (RXF 393 renal) of 1.44 µM and a TGI (RXF 393 renal) of 2.91 µM. The GI50 (TK-10 renal) was 1.76 µM, the TGI (TK-10 renal) was 4.73 µM and the GI50 (OVCAR-5 ovarian) was 0.831 µM. It also gave a TGI (OVCAR-5 ovarian) of 4.47 µM, a GI50 (UACC-62 melanoma) of 2.51 µM and a TGI (UACC-62 melanoma) of 11.7 µM. The GI50 (SF-539 CNS) was 1.52 µM, the TGI (SF-539 CNS) was 2.92 µM and the GI50 (OVCAR-3 ovarian) was 2.88 µM. For the same compound, the TGI (OVCAR-3 ovarian) was 12.5 µM, the GI50 (CCRF-CEM leukemia) was 2.11 µM and the TGI (CCRF-CEM leukemia) was 3.94 µM. For the same compound, the GI50 (SNB-19 CNS) was 2.79 µM, the TGI (SNB-19 CNS) was 8.23 µM and the GI50 (HT29 colon) was 0.203 µM. It also gave a TGI (HT29 colon) of 1.64 µM, a GI50 (NCI-H522 lung) of 1.53 µM and a TGI (NCI-H522 lung) of 3.83 µM. It also gave a GI50 (T-47D breast) of 3.84 µM, a TGI (T-47D breast) of 16.2 µM and a GI50 (COLO 205 colon) of 0.243 µM. It also gave a TGI (COLO 205 colon) of 1.03 µM, a GI50 (SNB-75 CNS) of 1.84 µM and a TGI (SNB-75 CNS) of 3.59 µM. It also gave a GI50 (MOLT-4 leukemia) of 1.15 µM, a TGI (MOLT-4 leukemia) of 2.5 µM and a GI50 (M14 melanoma) of 0.735 µM. The TGI (M14 melanoma) was 5.44 µM, the GI50 (SR leukemia) was 1.15 µM and the TGI (SR leukemia) was 2.39 µM. It also gave a GI50 (NCI-H23 lung) of 0.234 µM, a TGI (NCI-H23 lung) of 2.64 µM and a GI50 (KM12 colon) of 0.0163 µM. It also gave a TGI (KM12 colon) of 0.121 µM, a GI50 (DU-145 prostate) of 1.74 µM and a TGI (DU-145 prostate) of 4.58 µM. For the same compound, the GI50 ([…]-0 renal) was 1.83 µM, the TGI (786-0 renal) was 4.36 µM and the GI50 (MCF7 breast) was 0.244 µM. For the same compound, the TGI (MCF7 breast) was 11.6 µM, the GI50 (SK-OV-3 ovarian) was 1.63 µM and the TGI (SK-OV-3 ovarian) was 5.78 µM. For the same compound, the GI50 (OVCAR-8 ovarian) was 3.29 µM, the TGI (OVCAR-8 ovarian) was 11.1 µM and the GI50 (NCI-H460 NSCLC) was 0.607 µM. For the same compound, the TGI (NCI-H460 NSCLC) was 2.76 µM, the GI50 (MDA-MB-231 breast) was 2.03 µM and the TGI (MDA-MB-231 breast) was 10.4 µM. It also gave a GI50 (HCT-15 colon) of 1.96 µM, a TGI (HCT-15 colon) of 10.1 µM and a GI50 (NCI-H226 lung) of 0.197 µM. The TGI (NCI-H226 lung) was 1.76 µM, the GI50 (RPMI-8226 leukemia) was 1.56 µM and the TGI (RPMI-8226 leukemia) was 3.13 µM. It also gave a GI50 (A498 renal) of 2.19 µM, a TGI (A498 renal) of 4.84 µM and a GI50 (HS 578T breast) of 1.5 µM. For the same compound, the TGI (HS 578T breast) was 3.07 µM, the GI50 (SW-620 colon) was 1.76 µM and the TGI (SW-620 colon) was 11.3 µM. The GI50 (SF-295 CNS) was 2.44 µM, the TGI (SF-295 CNS) was 7.73 µM and the GI50 (HCC-2998 colon) was 1.17 µM. It also gave a TGI (HCC-2998 colon) of 2.53 µM, a GI50 (SF-268 CNS) of 1.76 µM and a TGI (SF-268 CNS) of 4.77 µM. It also gave a GI50 (U251 glioblastoma) of 3.3 µM, a TGI (U251 glioblastoma) of 12.1 µM and a GI50 (K-562 leukemia) of 1.81 µM. It also gave a TGI (K-562 leukemia) of 4.12 µM, a GI50 (LOX IMVI melanoma) of 0.845 µM and a TGI (LOX IMVI melanoma) of 2.07 µM. For the same compound, the GI50 (EKVX NSCLC) was 0.663 µM, the TGI (EKVX NSCLC) was 2.71 µM and the GI50 (ACHN renal) was 1.51 µM. It also gave a TGI (ACHN renal) of 9.76 µM, a GI50 (SN12C renal) of 0.715 µM and a TGI (SN12C renal) of 2.42 µM. For the same compound, the GI50 (MALME-3M melanoma) was 0.415 µM, the TGI (MALME-3M melanoma) was 3.99 µM and the GI50 (UACC-257 melanoma) was 2.17 µM. It also gave a TGI (UACC-257 melanoma) of 9.08 µM, a GI50 (A549 NSCLC) of 1.54 µM and a TGI (A549 NSCLC) of 5.24 µM. The GI50 (HL-60(TB) leukemia) was 0.0856 µM, the TGI (HL-60(TB) leukemia) was 1.1 µM and the GI50 (OVCAR-4 ovarian) was 1.83 µM. For the same compound, the TGI (OVCAR-4 ovarian) was 6.99 µM, the GI50 (BT-549 breast) was 1.83 µM and the TGI (BT-549 breast) was 4.76 µM. The GI50 (SK-MEL-5 melanoma) was 1.32 µM, the TGI (SK-MEL-5 melanoma) was 4.14 µM and the GI50 (HOP-62 NSCLC) was 2.48 µM. The TGI (HOP-62 NSCLC) was 9.04 µM, the GI50 (SK-MEL-28 melanoma) was 1.25 µM and the TGI (SK-MEL-28 melanoma) was 6.95 µM. The GI50 (NCI/ADR-RES ovarian) was 3.28 µM, the TGI (NCI/ADR-RES ovarian) was 11.1 µM and the GI50 (HOP-92 NSCLC) was 0.477 µM. For the same compound, the TGI (HOP-92 NSCLC) was 1.92 µM, the GI50 (IGROV1 ovarian) was 1.34 µM and the TGI (IGROV1 ovarian) was 3.26 µM. The GI50 (MDA-MB-435 melanoma) was 0.691 µM, the TGI (MDA-MB-435 melanoma) was 3.56 µM and the GI50 (CAKI-1 renal) was 1.77 µM. For the same compound, the TGI (CAKI-1 renal) was 4.29 µM, the GI50 (UO-31 renal) was 1.78 µM and the TGI (UO-31 renal) was 5.01 µM. For the same compound, the GI50 (NCI-H322M lung) was 1.88 µM and the TGI (NCI-H322M lung) was 11.3 µM.

Source: PubChem BioAssay (NCI)
